Data on two compounds can be found in patent US10761001B2, “Devices and methods for tension measurements and applications of same” (Vanderbilt University, priority 2016, dated 2020).

The subject of assay [1] is engineered cardiac tissue construct (ECTC) from neonatal rat ventricular cells. Kind of assay: I-Wire ECTC elasticity measurement (stretch-stress curve, Young's modulus). It is filed as cell-based. As to the method: (§1) Method step 2. Cell isolation and culturing: Neonatal rat ventricular cells were obtained from 2-day-old neonatal Sprague-Dawley rats using a trypsin digestion protocol with agitation overnight at 4° C. and plating cells for 40 minutes at 37° C. The population of isolated cells is heterogeneous and besides cardiomyocytes includes cardiofibroblasts, endothelial cells, and vascular smooth muscle cells. The presence of the different cell types is important for formation of the extracellular matrix and tissue structure. The isolated cells were mixed with fibrinogen (5 mg/mL, Sigma-Aldrich, St. Louis, Mo., USA)/Matrigel™ (100 μL/mL, BD Biosciences, San Jose, Calif., USA) plus thrombin (15 μL, 100 U/mL, Sigma-Aldrich, St. Louis, Mo., USA), and pipetted in a casting mold (FIG. 21A). Thereafter, cells were kept at 37° C. in a 5% CO2 humidified cell culture incubator for 1 hour. When fibrinogen was polymerized, 2 mL of cell culture media was added per well. The culture medium consisted of DMEM (Gibco Fisher Scientific, Waltham, Mass., USA), 10% horse serum (Gibco Fisher Scientific, Waltham, Mass., USA), 2% chick embryo extract (US Biological Fisher Scientific, Waltham, Mass., USA), 1% penicillin/streptomycin (Gibco Fisher Scientific, Waltham, Mass., USA), 10 μg/mL insulin (Sigma-Aldrich, St. Louis, Mo., USA), 400 μM tranexamic acid (Sigma-Aldrich, St. Louis, Mo., USA), and 33 μg/mL aprotinin (Sigma-Aldrich, St. Louis, Mo., USA). Over time, the preparation condensed to form elongated muscle fibers of 350-400 μm in diameter and 7 mm long. After 13-15 days of culturing, the contractility and stiffness of the ECTC (FIGS. 21B and 21C) could be measured using our microscope-based optical setup (FIG. 3A).
Method step 3. […]
At first, the linear part of the ECTC stretch-force curve was fitted using a linear equation and the amount of change of ECTC length was calculated. […]

A further assay concerns isolated mice CMs. The following applies: after application of blebbistatin; cited from earlier work.
Assay [2] deals with engineered cardiac tissue construct (ECTC) from neonatal rat ventricular cells. In words: I-Wire ECTC contractility under β-adrenergic stimulation. It is filed as cell-based. As to the method: as §1
Method step 3. Registration system for the contraction recording: To apply tensional force to the ECTC and detect contraction, a flexible PEEK tube of 365 μm in outer diameter and 120 μm bore (Putnam Plastics, Dayville, Conn., USA) and 28 mm length was glued to a Plexiglas cantilever adjuster attached to a cantilever support plate with two embedded position-control magnets (FIG. 3A). The stiffness of the probe was roughly matched to that of the ECTC; one might choose to use either a softer or stiffer probe to study ECTCs with different mechanical properties. The cantilever support plate with cantilever adjuster and flexible probe was mounted with a friction fit to the condenser of the inverted optical microscope (Eclipse Ti, Nikon, Melville, N.Y., USA) equipped with a digital camera system (Zyla sCMOS Camera, Andor Technology, Belfast, Northern Ireland). […]
Method step 4. Registration of action potential and reconstruction of electrical and mechanical restitution: Action potentials were recorded by utilizing floating micropipettes filled with 3-M KCl. […]

Molecules are shown by their SMILES. “Also recorded” adds a separate entry of the source.

With `Cc1ccc2c(c1)C(=O)C1(O)CCN(c3ccccc3)C1=N2` (centres unmarked) [blebbistatin], the “decrease of ECTC stiffness” value in assay [1] (6 μM blebbistatin) is recorded as 23%. In addition, in assay [1] (6 μM blebbistatin, untreated (relaxation) 13.4±2.5 kPa, N=5, P<0.05), the “Young's modulus of the ECTC” value is given as 10.3±2.8 kPa. Further, the “slope of the fitted straight line of the stretch-stress curve” value in assay [1] (blebbistatin-treated ECTCs, 6 μM, systolic 4.9, diastolic 15.1 %/mN) is 17.5 %/mN. For the same compound, the “lowering of the diastolic stress” value with isolated mice CMs is reported as 30%.

Regarding `CC(C)NCC(O)c1ccc(O)c(O)c1` (centres unmarked) [isoproterenol], the contraction duration entry in assay [2] (1 μM isoproterenol (β-adrenergic stimulation)) is on record as “shortening”. Further, the contraction velocity entry in assay [2] (1 μM isoproterenol, applied force exceeded 0.233 mN, P<0.05, N=7) was “statistically significant acceleration”. The developed force result in assay [2] (1 μM isoproterenol, applied transverse forces greater than 0.156 mN, P<0.05, N=7) was “significant increase”. The “force exerted by the ECTC during contraction and relaxation” value in assay [2] (1 μM isoproterenol, separate analysis of systole and diastole) is on record as “significant change occurs only in the phase of relaxation; also recorded: significant effect of the isoproterenol only during the diastolic phase”.
